Measured values from patent US20050089558A1 (Alamo Pharmaceuticals, LLC, priority 2003, published 2005).
Where two headings read alike, the source gives them in different places.

Columns and labels:
[1] = tested on: abdominal muscle contractions (writhing) induced by 0.6% acetic acid; assay: acetic acid writhing test of analgesia in mice; type: in vivo, Crl:CFW (SW) BR mice; settings: 0.6% acetic acid i.p. 30 min later, male mice; for Ave. # of writhes: 15-minute count
Description: In the animal studies presented in Examples 5-7, tramadol and dextro-propoxyphene were administered neat (undiluted), or were diluted with diluted with saline (i.e. 0.9% Sodium Chloride for injection) in order to achieve the desired dose volumes. Fresh solutions were prepared for each concentration (of each compound) prior to administration.
Acetic acid was used to assess experimental pain or “writhing.” Specifically, thirty minutes after dosing, the writhing-induction agent (0.6% Acetic Acid) was administered to all experimental groups by intraperitoneal injection at a dose volume of 10 mL/kg.
Crl:CFW® (SW) BR mice, from Charles River Laboratories were used as the animal model to test the analgesia of the tramadol/propoxyphene co-formulations. The test animals were approximately 4 weeks of age on arrival and each animals weighed approximately 22 to 28 g within 3 days of arrival. […] Animals considered suitable for study were weighed prior to treatment and randomized, by sex, into treatment groups using a standard, by weight, block randomization procedure.
The protocols employed assessed the qualitative and quantitative changes in abdominal muscle contractions (writhing) induced after the […] administration of a noxious chemical stimulus, 0.6% acetic acid, in mice. The degree and amount of contractile abdominal activity is a measure of “experimentally-induced pain”. A decrease in the amount of writhing with prior administration of a test article is an experimental measure of “analgesia.”
Dose-response functions were generated for each of the two (2) test articles (tramadol, dextro-propoxyphene,). ED50 values for analgesic activity were estimated using a least squares linear regression analysis procedure using PHARM/PCS or SAS.
The test article, positive control, and vehicle were administered to all groups as a single subcutaneous injection in the scapular region on the back at a dose volume of 10 mL/kg and at the dose levels as presented in Table 1 below.
Thirty minutes after dosing, the writhing-induction article, 0.6% acetic acid, was administered to all groups by intraperitoneal injection at a dose volume of 10 mL/kg.
Immediately after administration of the writhing-induction article, animals were placed into a poly-observation chamber and a 15-minute evaluation period was initiated. During the 15-minute evaluation period, the number of “writhes” that occurred were recorded. For scoring purposes, a “writhe” was indicated by whole body stretching or contraction of the abdomen, further described as waves of contraction of the abdominal musculature, twisting and turning of the trunk, and hind-limb extension.

mu receptors of the CNS = mu receptors of the CNS (Homo sapiens, UniProt P35372); settings: relative to morphine; cited from earlier work
opioid receptors = settings: in words; cited from earlier work
[2] = cited from earlier work; for half-life: after a single oral dose of 100 mg tramadol, 2-compartmental elimination; for accumulation: during multiple dose treatment with tramadol
NMDA receptor = settings: in words, a recent study; cited from earlier work
[3] = in vivo; cited from earlier work
[4] = in words; cited from earlier work

Sequence of mu receptors of the CNS (P35372 whole entry): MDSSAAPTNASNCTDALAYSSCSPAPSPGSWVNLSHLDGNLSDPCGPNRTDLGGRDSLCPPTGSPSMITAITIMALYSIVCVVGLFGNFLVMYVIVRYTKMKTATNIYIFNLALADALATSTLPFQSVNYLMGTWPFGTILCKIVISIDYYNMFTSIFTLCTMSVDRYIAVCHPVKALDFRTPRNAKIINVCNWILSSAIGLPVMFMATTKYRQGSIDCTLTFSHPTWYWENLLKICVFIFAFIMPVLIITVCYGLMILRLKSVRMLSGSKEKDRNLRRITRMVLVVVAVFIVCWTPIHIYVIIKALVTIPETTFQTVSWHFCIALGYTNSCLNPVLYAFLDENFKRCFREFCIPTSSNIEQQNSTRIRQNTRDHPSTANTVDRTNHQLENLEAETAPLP

SMILES	Ave. # of writhes ([1]; 1.0 mg/kg single s.c. dose)	% Analgesia ([1]; 1.0 mg/kg single s.c. dose) [%]	Ave. # of writhes ([1]; 3.2 mg/kg single s.c. dose)	% Analgesia ([1]; 3.2 mg/kg single s.c. dose) [%]	affinity for opioid receptors (opioid receptors)	half-life [2] [h]	accumulation [2]	also measured
COc1cccc([C@]2(O)CCCC[C@H]2CN(C)C)c1 (racemic) [Tramadol, cyclohexanol, 2-((dimethylamino)methyl)-1-(3-methoxyphenyl)-, cis-(+−)-]	55.1	−4.16	31.7	40.08	low affinity	5.1	approximately 2 fold	Ave. # of writhes ([1]; 0.32 mg/kg single s.c. dose): 54.6; % Analgesia ([1]; 0.32 mg/kg single s.c. dose): −3.21%; affinity for mu receptors of the CNS, times lower than that of morphine (mu receptors of the CNS): 6000 times; duration of the analgesic effect ([2]; after a single oral dose of tramadol 100 mg): about 6 hours; bioavailability ([2]; after oral administration): 68%; time to peak serum concentrations ([2]; after oral administration): ≤ 2 h; time to peak plasma levels ([2]; following oral administration): ≤ 2 h
CN(C)CC1CCCCC1(O)c1cccc(O)c1 (centres unmarked) [M1 derivative, O-demethyl tramadol]					higher affinity for opioid receptors than the parent drug	9	approximately 2 fold	
CCC(=O)OC(Cc1ccccc1)(c1ccccc1)C(C)CN(C)C (stereo not drawn) [Propoxyphene, 2-Butanol, 4-(dimethylamino)-3-methyl-1,2-diphenyl-, propionate, (+)-]	59.4	−12.29	45.4	14.18				Ave. # of writhes ([1]; 10.0 mg/kg single s.c. dose): 26.7; % Analgesia ([1]; 10.0 mg/kg single s.c. dose): 49.53%; activity at the NMDA receptor (NMDA receptor): antagonist activity; half-life [3]: 6 to 12 h
CCC(=O)O[C@](Cc1ccccc1)(c1ccccc1)[C@H](C)CNC [norpropoxyphene]								analgesic properties [4]: very weak analgesic properties
